Measured values taken from ChEMBL document CHEMBL1201862, “PubChem BioAssay data set” (2004).
Activity calls are given as the source filed them.

Legend:
[1] = Luminescence Cell-Based Dose Response HTS to Identify Inhibitors of 5'UTR Stem-Loop Driven Prion Protein mRNA Translation in H4 Neuroglioblastoma Cells. [Related pubchem assays: 1827 (Project Summary), 1813 (Primary HTS)]; assay type: functional
Beta-galactosidase = Beta-galactosidase (Escherichia coli, UniProt Q8VNN2); assay: PubChem AID 485352; assay type: functional
[2] = alpha-synuclein stem-loop luciferase translation blockers – H4 neuroglioma cells, luminescence, confirmation (AID 1988); assay type: functional, cell-based
[3] = biological target: Luciferin 4-monooxygenase (Photinus pyralis, UniProt P08659); assay: inhibition of purified Photinus pyralis luciferase – biochemical, luminescence, dose response (AID 1891)
[4] = Luminescence Cell-Based Dose Confirmation HTS to Identify Inhibitors of Platelet Dense Granule Release. [Related pubchem assays: 1663 (Primary HTS), 1678 (Summary of Project)]; assay type: functional
[5] = biological target: T1, Type-1 angiotensin II receptor (Homo sapiens, UniProt P30556); assay: antagonism of angiotensin II type 1 receptor – cell-based, uHTS hits, selectivity assay for APJ receptor antagonist project, dose response (AID 463214); assay type: functional;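 further: antagonist potency against angiotensin II stimulated AT1 response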
T1 sequence (P30556 whole entry): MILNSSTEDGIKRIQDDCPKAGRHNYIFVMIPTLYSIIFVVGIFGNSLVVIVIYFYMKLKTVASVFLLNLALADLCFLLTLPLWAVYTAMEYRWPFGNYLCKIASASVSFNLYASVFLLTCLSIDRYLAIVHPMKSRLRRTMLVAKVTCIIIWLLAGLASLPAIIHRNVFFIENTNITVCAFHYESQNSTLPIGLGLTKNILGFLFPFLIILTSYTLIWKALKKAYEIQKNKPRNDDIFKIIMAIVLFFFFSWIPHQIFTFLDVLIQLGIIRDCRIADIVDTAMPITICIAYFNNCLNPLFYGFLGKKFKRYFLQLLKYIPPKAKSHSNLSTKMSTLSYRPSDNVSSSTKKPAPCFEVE

[6] = biological target: T2, Microphthalmia-associated transcription factor (Homo sapiens, UniProt O75030); assay: reducers of TRPM1 reporter luminescence, concentration series – cell-based, SK-MEL-5, cherry-picked, set 3, MITF inhibitor project, dose response (AID 493073); assay type: functional;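 further: SK-MEL-5 melanoma cells with luciferase driven by the MITF target TRPM1 promoter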
T2 sequence (O75030 whole entry): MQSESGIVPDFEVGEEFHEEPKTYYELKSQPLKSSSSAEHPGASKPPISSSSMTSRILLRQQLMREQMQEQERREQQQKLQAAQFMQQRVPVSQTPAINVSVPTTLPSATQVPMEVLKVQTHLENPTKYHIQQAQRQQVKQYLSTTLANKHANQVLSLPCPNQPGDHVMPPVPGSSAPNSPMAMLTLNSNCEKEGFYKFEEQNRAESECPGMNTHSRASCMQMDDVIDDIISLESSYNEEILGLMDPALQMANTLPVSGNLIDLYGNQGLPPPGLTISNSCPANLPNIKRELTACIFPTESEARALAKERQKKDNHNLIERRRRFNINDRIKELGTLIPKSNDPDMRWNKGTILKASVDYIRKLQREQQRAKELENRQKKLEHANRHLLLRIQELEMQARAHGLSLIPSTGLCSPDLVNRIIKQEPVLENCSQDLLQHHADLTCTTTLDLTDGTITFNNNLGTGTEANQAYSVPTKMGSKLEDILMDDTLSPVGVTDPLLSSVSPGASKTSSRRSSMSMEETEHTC

A-375 = assay: proliferation inhibition in MITF-low A375 cells – cell-based, cherry-pick samples, set 2, counter-screen for MITF modulator project, dose response (AID 540335); assay type: functional; conditions: Homo sapiens
[7] = A549 cell cytotoxicity, dose response, cytotoxicity control, plate reader, cherry-pick, antagonist series (AID 743412); assay type: functional, cell-based
[8] = toxicity toward HepG2 liver cells – cell-based, plate reader, cherry-pick, antagonist series, cytotoxicity control, dose response (AID 743416); assay type: functional
[9] = blockers of bursicon-stimulated LGR2 cAMP reporter – cell-based, HEK293, CRE-luciferase reporter, cherry pick, set 2, dose response (AID 743343); assay type: functional;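 further: transfected cells were stimulated with diluted bursicon conditioned medium after compound addition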
[10] = blockade of melanocortin 4 receptor signaling – cell-based, plate reader, cherry pick, counter-screen for LGR2 antagonist project, dose response (AID 743444); assay type: functional;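 further: transfected HEK 293 cells stimulated with alpha-MSH peptide; potency of inhibitors of the alpha-MSH evoked signal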
[11] = viability loss in HEK293 cells – cell-based, plate reader, cherry-picked samples, cytotoxicity control, dose response (AID 743446); assay type: functional
Escherichia coli = assay: microbe, parasite or virus in culture
Nonstructural protein 1 = Nonstructural protein 1 (Influenza A virus, UniProt Q194T2); assay type: functional, Influenza A virus (A/California/07/2009(H1N1))
MDCK [12] = assay: antiviral activity against H1N1 influenza, dose response, cell-based, strain KY180 (AID 540254); assay type: functional; conditions: Canis lupus familiaris
MDCK [13] = assay: antiviral activity against H1N1 influenza, dose response, cell-based, strain KY136 (AID 540257); assay type: functional; conditions: Canis lupus familiaris
[14] = biological target: Glycogen synthase kinase-3 alpha (Homo sapiens, UniProt P49840); assay: Inhibition of Human GSK-3 alpha Activity Measured in Biochemical System Using Microfluidics - 2063-06_Inhibitor_Dose_DryPowder_Activity. [Related pubchem assays (depositor defined):AID2709]
[15] = biological target: Glycogen synthase kinase-3 beta (Homo sapiens, UniProt P49841); assay: Inhibition of Human GSK-3 beta Activity Measured in Biochemical System Using Microfluidics - 2063-05_Inhibitor_Dose_DryPowder_Activity. [Related pubchem assays (depositor defined):AID2709]
HEK293 [16] = assay: inhibition of NOD1-driven NF-kB reporter – cell-based, luminescence, uHTS, primary screen (AID 1578); assay type: functional; conditions: Homo sapiens
HEK293 [17] = assay: cells; assay type: functional, cell-based; conditions: Homo sapiens
HEK293 [18] = assay: cells; assay type: functional, cell-based; conditions: Homo sapiens; remark: listed apart in the source
[19] = biological target: Nucleotide-binding oligomerization domain-containing protein 2 (Homo sapiens, UniProt Q9HC29); assay: inhibition of NOD2-driven NF-kB reporter – cell-based, luminescence, uHTS, HEK293 (AID 1566); assay type: functional
HEK293 [20] = assay: NOD2 signaling inhibitors in MDP-stimulated cells, cell-based, uHTS, luminescence (AID 2001); assay type: functional; conditions: Homo sapiens
HEK293 [21] = assay: cells; assay type: functional, cell-based; conditions: Homo sapiens; remark: listed apart in the source
Jurkat [22] = assay: blockers of NF-kB activation in T cells – Jurkat, luciferase reporter, luminescence, B- and T-cell, dose response (AID 489004); assay type: functional, cell-based; conditions: Homo sapiens;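 further: NF-kB luciferase reporter Jurkat cells stimulated with PMA plus ionomycin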
[23] = HEK-293T viability loss, compound-treated – cell-based, uHTS hits, cytotoxicity control for B/T-cell NF-kB inhibitor project, dose response (AID 489019); assay type: functional;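 further: IC50 reflects cytotoxicity as loss of cell viability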
INS1 = assay: INS-1E survival protection against cytokine death – cell-based, luminescence, retest, dose response (AID 449756); assay type: functional; conditions: Rattus norvegicus;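 further: cell death triggered by IL-1 beta plus TNF-alpha plus IFN-gamma mixture; protective hits raise ATP signal compared with cytokine alone wells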
[24] = biological target: T3, COUP transcription factor 2 (Homo sapiens, UniProt P24468); assay: Luminescence-based cell-based high throughput dose response assay to identify inhibitors of COUP-TFII (NR2F2).; assay type: functional;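 further: HEK293 cells transiently cotransfected with COUP-TFII expression vector and reporter; luciferase reporter luminescence driven by COUP-TFII from the pX2-168 reporter plasmid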
T3 sequence (P24468 whole entry): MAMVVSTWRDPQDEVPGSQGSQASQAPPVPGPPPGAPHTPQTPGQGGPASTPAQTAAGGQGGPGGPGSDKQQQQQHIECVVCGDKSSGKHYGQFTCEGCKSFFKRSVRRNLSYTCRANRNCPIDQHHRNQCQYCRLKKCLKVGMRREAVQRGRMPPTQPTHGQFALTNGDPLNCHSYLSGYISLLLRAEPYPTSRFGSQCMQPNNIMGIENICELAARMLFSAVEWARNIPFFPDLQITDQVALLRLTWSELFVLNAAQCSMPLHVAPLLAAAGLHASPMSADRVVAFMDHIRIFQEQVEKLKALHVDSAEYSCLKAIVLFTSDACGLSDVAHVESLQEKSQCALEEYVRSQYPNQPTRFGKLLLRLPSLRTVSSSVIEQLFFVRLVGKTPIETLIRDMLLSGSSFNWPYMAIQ

HEK293 [25] = assay: HEK293T cell viability loss, resazurin readout – resazurin fluorescence, cytotoxicity control for NF-kB activator project, SAR follow-up (AID 493251); assay type: functional, cell-based; conditions: Homo sapiens
Jurkat [26] = assay: SAR Analysis of small molecule inhibitors of T-cell specific antigen receptor-induced NF-kB activation in a Jurkat cell line using a luminescence assay - Set 2. [Related pubchem assays (depositor defined):AID435003, AID435012, AID465]; assay type: functional, cell-based; conditions: Homo sapiens
HEK293 [27] = assay: SAR Analysis of small molecule inhibitors of T-cell specific antigen receptor-induced NF-kB activation in a HEK-293T cell line using a luminescence assay - Set 2. [Related pubchem assays (depositor defined):AID435003, AID435012, AID489026]; assay type: functional, cell-based; conditions: Homo sapiens
Candida albicans [28] = assay: fluconazole-resistant Candida strain growth inhibitors – CaCi-8 strain, dry powder, set 4, dose response (AID 488950); assay type: functional, organism-based
Candida albicans [29] = assay: Candida growth reduction in fluconazole presence – CaCi-2 strain, Alamar Blue, dry powder, set 2, antifungal resistance reversal project, dose response (AID 488930); assay type: functional, organism-based
Candida albicans [30] = assay: C. albicans growth inhibition with fluconazole – CaCi-2 strain, Alamar Blue, dry powder, set 4, dose response (AID 488943); assay type: functional, organism-based
Candida albicans [31] = assay: resistant Candida growth with fluconazole co-treatment – CaCi-8 strain, Alamar Blue, dry powder, set 2, dose response (AID 488909); assay type: functional, organism-based

Sequence of Nonstructural protein 1 (Q194T2 whole entry): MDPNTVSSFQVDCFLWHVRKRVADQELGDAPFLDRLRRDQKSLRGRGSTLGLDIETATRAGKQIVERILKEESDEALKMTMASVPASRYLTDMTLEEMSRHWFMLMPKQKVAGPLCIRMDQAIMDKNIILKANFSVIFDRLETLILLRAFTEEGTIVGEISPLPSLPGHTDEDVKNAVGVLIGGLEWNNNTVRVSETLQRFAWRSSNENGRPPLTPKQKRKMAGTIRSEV
Sequence of Luciferin 4-monooxygenase (P08659 whole entry): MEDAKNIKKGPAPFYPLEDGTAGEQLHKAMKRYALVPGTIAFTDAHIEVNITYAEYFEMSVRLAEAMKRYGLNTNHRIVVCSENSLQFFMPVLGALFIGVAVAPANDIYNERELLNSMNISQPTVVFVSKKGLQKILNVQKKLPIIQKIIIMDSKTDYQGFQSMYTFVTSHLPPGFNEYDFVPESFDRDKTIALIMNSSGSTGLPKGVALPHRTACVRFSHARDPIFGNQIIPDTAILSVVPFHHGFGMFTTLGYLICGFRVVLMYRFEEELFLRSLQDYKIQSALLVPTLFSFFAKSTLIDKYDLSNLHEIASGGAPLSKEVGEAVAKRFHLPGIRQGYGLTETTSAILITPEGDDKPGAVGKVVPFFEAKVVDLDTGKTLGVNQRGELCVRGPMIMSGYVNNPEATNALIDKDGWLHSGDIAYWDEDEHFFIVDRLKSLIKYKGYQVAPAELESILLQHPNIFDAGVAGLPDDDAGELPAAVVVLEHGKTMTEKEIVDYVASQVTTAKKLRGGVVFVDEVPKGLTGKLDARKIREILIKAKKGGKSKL
Sequence of Nucleotide-binding oligomerization domain-containing protein 2 (Q9HC29 whole entry, the tested form may be a part): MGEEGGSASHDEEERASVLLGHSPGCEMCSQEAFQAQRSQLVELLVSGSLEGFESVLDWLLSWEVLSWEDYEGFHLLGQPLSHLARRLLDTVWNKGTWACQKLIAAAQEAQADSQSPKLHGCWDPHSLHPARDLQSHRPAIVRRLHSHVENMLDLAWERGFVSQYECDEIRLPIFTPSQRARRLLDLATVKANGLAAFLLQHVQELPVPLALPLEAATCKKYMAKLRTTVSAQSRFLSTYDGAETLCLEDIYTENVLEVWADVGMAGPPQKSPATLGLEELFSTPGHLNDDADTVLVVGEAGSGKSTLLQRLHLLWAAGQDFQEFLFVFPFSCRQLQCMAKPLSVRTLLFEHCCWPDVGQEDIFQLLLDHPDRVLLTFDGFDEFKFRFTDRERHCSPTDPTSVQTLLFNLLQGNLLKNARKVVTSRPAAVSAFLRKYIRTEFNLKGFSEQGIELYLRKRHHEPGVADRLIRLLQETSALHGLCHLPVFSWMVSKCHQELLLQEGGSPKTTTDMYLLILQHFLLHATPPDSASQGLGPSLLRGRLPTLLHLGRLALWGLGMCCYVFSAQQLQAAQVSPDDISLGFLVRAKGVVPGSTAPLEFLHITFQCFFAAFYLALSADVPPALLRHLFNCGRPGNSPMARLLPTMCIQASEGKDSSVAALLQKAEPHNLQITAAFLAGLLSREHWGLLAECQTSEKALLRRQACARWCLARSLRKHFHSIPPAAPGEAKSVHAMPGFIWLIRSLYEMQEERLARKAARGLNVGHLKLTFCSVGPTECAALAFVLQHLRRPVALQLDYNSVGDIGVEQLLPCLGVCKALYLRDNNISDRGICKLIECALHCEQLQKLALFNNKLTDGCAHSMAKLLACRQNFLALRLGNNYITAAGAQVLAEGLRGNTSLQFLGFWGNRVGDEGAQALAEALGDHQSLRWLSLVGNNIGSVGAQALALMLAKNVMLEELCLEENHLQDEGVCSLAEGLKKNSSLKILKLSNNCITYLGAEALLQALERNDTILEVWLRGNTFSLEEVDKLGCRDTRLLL
Sequence of Beta-galactosidase (Q8VNN2 whole entry): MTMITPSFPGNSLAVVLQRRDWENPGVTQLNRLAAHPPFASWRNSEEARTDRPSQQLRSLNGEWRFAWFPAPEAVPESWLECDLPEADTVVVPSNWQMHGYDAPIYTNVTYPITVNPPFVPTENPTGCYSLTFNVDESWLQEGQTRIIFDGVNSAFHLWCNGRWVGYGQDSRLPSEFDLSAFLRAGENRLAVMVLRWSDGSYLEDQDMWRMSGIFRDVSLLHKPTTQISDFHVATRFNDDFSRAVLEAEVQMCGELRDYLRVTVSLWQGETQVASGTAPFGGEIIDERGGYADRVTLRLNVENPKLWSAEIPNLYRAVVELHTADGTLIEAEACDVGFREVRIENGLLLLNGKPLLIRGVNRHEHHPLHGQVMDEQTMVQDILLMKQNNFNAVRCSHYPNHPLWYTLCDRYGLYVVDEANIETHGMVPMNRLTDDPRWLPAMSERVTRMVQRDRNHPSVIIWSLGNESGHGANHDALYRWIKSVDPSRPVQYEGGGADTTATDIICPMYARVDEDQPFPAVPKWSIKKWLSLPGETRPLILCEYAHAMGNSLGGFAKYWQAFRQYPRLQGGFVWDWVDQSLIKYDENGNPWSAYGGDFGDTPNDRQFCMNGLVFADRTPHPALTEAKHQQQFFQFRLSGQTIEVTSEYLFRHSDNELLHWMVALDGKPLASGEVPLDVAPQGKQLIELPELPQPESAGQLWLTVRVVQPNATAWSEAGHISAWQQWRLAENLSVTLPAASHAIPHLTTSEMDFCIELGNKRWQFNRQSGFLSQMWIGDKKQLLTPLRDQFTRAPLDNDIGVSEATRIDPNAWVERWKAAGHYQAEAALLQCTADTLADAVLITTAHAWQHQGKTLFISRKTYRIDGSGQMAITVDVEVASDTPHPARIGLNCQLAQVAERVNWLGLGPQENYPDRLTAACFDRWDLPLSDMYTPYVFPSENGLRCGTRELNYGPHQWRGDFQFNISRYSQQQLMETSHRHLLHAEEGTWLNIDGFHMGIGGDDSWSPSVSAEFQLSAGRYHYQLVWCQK
Sequence of Glycogen synthase kinase-3 beta (P49841 whole entry): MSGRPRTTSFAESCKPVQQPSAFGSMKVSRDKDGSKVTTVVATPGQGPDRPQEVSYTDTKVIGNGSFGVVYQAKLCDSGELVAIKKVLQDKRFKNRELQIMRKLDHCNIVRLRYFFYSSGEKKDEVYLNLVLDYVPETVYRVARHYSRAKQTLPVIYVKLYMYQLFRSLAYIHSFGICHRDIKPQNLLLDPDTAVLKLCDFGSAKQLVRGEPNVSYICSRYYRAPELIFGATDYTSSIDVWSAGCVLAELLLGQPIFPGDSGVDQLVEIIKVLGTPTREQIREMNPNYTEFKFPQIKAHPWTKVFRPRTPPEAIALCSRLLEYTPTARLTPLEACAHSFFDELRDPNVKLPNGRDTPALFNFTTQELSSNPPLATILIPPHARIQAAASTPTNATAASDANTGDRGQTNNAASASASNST
Sequence of Glycogen synthase kinase-3 alpha (P49840 whole entry): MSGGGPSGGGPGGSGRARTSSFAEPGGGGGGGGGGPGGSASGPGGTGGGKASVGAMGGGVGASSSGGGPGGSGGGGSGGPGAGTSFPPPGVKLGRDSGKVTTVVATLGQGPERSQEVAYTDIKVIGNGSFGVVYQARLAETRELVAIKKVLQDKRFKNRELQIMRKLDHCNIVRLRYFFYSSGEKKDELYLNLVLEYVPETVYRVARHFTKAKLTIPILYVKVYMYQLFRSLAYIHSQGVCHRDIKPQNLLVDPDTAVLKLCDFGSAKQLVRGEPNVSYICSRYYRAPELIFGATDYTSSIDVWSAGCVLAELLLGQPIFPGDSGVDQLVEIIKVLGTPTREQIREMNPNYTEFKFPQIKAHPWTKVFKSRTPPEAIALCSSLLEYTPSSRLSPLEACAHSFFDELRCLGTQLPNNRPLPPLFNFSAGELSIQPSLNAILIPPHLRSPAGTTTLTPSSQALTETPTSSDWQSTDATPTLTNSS

SMILES: COc1ccc(-c2cc3c(nn2)-c2ccccc2C3=O)cc1
- EC50 [1]: > 60 µM (not active)
- EC50 (Beta-galactosidase): > 40 µM (inactive)
- EC50 [2]: 0.375 µM (inconclusive)
- EC50 [3]: 0.384 µM (active)
- EC50 [4]: 6.87 µM (active)
- IC50 [5]: 6.98 µM (active)
- AC50 [6]: 4.22 µM (active)
- AC50 (A-375): 20.2 µM (active)
- AC50 [7]: 29.2 µM (active)
- AC50 [8]: 15.8 µM (active)
- AC50 [9]: 4.41 µM (active)
- AC50 [10]: 5.11 µM (active)
- AC50 [11]: 23.4 µM (active)

SMILES: CC(C)c1cc(C(=O)NCc2ccco2)no1
- AC50 (Escherichia coli): 46.2 µM (active)

SMILES: CN(C)c1cccc2c(C=C(C#N)C#N)ccc(N(C)C)c12
- IC50 (Nonstructural protein 1): 22.6 µM (active)
- IC50 (MDCK [12]): 15.9 µM (active)
- IC50 (MDCK [13]): > 100 µM (active)

SMILES: Nc1nc(NCCCN2CCOCC2)nc(Nc2cccc(F)c2)c1[N+](=O)[O-]
- AC50 [14]: 0.698 µM (active)
- AC50 [15]: 0.208 µM (active)

SMILES: O=S(=O)(NCC1CCCO1)c1ccc(-c2ccc(S(=O)(=O)NCC3CCCO3)cc2)cc1 (stereo unspecified)
- EC50 (HEK293 [16]): 1.65 µM (active)
- IC50 (HEK293 [17]): 5.37 µM (active)
- IC50 (HEK293 [18]): 19.9 µM (active)
- EC50 [19]: > 20 µM (inactive)
- IC50 (HEK293 [20]): 9.07 µM (active)
- IC50 (HEK293 [21]): > 20 µM (inactive)
- IC50 (Jurkat [22]): > 80 µM (inactive)
- IC50 [23]: > 80 µM (inactive)
- AC50 (INS1): 3.25 µM (active)
- IC50 [24]: 2.02 µM (active)

SMILES: COc1ccc(C(=O)Nc2ccc(NC(=O)c3cc4ccccc4o3)cc2)cc1Cl
- IC50 (HEK293 [25]): > 80 µM (inactive)
- IC50 (Jurkat [26]): > 79 µM (inactive)
- IC50 (HEK293 [27]): > 80 µM (inactive)

SMILES: O=C(c1ccc(Cl)cc1)C1CCN(c2ccnc3cc(Cl)ccc23)CC1
- AC50 (Candida albicans [28]): 0.579 µM (active)
- AC50 (Candida albicans [29]): 0.663 µM (active)
- AC50 (Candida albicans [30]): 0.342 µM (active)
- AC50 (Candida albicans [31]): 3.81 µM (active)
